This note sets out measurements from BindingDB's records for doi:10.1021/jm101011y (University of Basel, 2010).

pIC50: −log10 of the molar value.

Usually pIC50 stands for the negative decadic logarithm of the IC50, by convention in mol/L.

The assay can be described thus: Antagonist activity at Escherichia coli UT189 FimH in guinea pig red blood cells assessed as disaggregation of bacteria after 600 secs by aggregometry assay.
For `COC(=O)c1ccc(-c2ccc(Cl)c(O[C@H]3O[C@H](CO)[C@@H](O)[C@H](O)[C@@H]3O)c2)cc1`, the pIC50 is 4.51.

Turning to `COC(=O)c1ccc(-c2cc(Cl)c(O[C@H]3O[C@H](CO)[C@@H](O)[C@H](O)[C@@H]3O)c(Cl)c2)cc1`, the negative logarithm of the IC50 (pIC50) was 4.85.

Turning to `O=C(O)c1ccc(-c2ccc(O[C@H]3O[C@H](CO)[C@@H](O)[C@H](O)[C@@H]3O)cc2)cc1`, the pIC50 was 4.35.

For the compound `COC(=O)c1ccc(-c2ccc(O[C@H]3O[C@H](CO)[C@@H](O)[C@H](O)[C@@H]3O)cc2Cl)cc1`, the pIC50 was 4.39.

Consider `O=C(O)c1ccc(-c2ccc(O[C@H]3O[C@H](CO)[C@@H](O)[C@H](O)[C@@H]3O)cc2Cl)cc1`, for which the pIC50 was 4.77.

Regarding `O=C(O)c1ccc(-c2cccc(O[C@H]3O[C@H](CO)[C@@H](O)[C@H](O)[C@@H]3O)c2)cc1`, the negative logarithm of the IC50 (pIC50) is 4.35.

Consider `COC(=O)c1ccc(-c2ccc(O[C@H]3O[C@H](CO)[C@@H](O)[C@H](O)[C@@H]3O)c(Cl)c2)cc1`, for which the pIC50 is 5.05.

For the compound `O=C(O)c1ccc(-c2ccc(O[C@H]3O[C@H](CO)[C@@H](O)[C@H](O)[C@@H]3O)c(Cl)c2)cc1`, the pIC50 is 5.00.
